# In the supplement of paper PMC12463676, “Small-molecule dissolution of stress granules by redox modulation benefits ALS models” (Nature Chemical Biology, 2025):
# Columns and labels:
# lipoamide = compound: NC(=O)CCCCC1CCSS1 [lipoamide]; test: thermal stability z-score vs DMSO; higher = more thermally stabilized by treatment; conditions: HeLa, lipoamide concentration 100 µM
# Protocol: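 Cellular thermal proteome profiling in HeLa cells. Cells were treated with 100 µM lipoamide for 1 h, with or without 1 mM arsenate for a further 1 h, then heated to ten temperatures (37-66.3 °C), and soluble protein was quantified by TMT mass spectrometry relative to 0.1% DMSO controls. The thermal stability score (sum of log2 fold changes minus the abundance score) was transformed to a z-score; mean of n = 3 experiments.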
# potassium arsenate = compound: O=[As]([O-])(O)O.[K+] [potassium arsenate]; test: as above; conditions: HeLa; arsenate concentration 1 mM
# Protocol: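 Cellular thermal proteome profiling in HeLa cells treated with 1 mM arsenate for 1 h (DMSO pretreatment), heated to ten temperatures (37-66.3 °C). Soluble protein was quantified by TMT mass spectrometry relative to DMSO controls; the thermal stability score was transformed to a z-score; mean of n = 3 experiments.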
# [1] = arsenate co-treatment: 1 mM arsenate 1 h
# 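Note: each temperature applied for 3 min, abundance score taken as mean log2 fold change at the two lowest temperatures, z-score obtained by mean subtraction and division by SD.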
# Chain of UniProt Q9H3F6 (Q9H3F6 whole entry): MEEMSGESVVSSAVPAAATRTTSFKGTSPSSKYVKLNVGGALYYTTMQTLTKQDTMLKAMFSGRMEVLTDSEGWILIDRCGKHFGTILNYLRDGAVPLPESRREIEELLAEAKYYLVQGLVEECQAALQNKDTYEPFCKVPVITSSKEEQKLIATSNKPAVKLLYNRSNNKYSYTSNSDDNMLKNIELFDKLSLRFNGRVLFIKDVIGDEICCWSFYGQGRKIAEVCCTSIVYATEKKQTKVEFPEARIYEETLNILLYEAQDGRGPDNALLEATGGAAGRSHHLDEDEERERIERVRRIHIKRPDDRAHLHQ
# Chain of UniProt Q96SY0 (Q96SY0 whole entry): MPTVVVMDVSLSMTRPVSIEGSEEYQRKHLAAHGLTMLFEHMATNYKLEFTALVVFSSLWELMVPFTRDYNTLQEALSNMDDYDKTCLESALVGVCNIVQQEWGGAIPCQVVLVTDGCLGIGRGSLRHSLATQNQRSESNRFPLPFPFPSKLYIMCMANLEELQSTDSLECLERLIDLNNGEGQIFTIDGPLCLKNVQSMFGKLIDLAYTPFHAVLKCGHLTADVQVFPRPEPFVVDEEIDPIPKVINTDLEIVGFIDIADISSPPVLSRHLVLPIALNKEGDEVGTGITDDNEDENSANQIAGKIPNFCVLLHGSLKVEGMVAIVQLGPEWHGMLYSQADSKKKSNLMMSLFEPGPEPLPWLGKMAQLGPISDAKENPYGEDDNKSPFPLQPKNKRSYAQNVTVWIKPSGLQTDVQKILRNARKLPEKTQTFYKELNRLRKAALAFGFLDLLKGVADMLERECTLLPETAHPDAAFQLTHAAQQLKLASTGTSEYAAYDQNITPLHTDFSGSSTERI
# Chain of UniProt Q14161 (Q14161 whole entry): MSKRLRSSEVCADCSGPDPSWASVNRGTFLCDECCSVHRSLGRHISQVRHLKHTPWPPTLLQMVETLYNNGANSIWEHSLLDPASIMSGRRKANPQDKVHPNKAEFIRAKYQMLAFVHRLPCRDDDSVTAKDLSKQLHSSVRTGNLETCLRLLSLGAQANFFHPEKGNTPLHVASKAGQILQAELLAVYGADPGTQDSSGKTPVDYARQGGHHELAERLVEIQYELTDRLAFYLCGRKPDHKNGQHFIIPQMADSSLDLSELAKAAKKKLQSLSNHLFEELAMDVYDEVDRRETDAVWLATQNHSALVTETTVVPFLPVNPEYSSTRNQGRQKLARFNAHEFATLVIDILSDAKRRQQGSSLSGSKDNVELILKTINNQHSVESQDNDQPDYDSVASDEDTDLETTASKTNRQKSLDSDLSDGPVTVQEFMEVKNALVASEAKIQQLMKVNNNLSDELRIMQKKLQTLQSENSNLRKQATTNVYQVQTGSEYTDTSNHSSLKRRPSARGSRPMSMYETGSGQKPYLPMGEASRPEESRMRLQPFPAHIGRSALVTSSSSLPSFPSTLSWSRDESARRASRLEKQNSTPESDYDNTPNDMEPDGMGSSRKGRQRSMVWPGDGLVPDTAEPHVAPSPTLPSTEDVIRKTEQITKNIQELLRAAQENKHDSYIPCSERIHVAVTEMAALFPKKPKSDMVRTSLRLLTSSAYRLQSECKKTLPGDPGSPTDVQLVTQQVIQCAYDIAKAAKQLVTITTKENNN
# Chain of UniProt Q9Y692 (Q9Y692 whole entry): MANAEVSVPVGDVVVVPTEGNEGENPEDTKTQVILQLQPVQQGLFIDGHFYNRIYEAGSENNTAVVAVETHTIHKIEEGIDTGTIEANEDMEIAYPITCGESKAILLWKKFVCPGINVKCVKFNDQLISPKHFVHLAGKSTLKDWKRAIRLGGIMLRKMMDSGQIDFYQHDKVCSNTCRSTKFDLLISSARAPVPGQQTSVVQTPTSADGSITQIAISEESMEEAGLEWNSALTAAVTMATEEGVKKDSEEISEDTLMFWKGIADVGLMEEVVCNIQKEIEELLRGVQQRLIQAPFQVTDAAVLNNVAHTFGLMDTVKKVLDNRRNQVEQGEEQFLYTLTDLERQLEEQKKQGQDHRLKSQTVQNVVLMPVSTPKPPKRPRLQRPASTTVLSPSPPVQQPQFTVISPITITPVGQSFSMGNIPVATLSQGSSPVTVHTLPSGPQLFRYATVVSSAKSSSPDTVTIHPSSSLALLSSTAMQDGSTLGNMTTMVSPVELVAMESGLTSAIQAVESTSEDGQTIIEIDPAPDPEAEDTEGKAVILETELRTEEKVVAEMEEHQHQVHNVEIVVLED
# Chain of UniProt Q12986 (Q12986 whole entry): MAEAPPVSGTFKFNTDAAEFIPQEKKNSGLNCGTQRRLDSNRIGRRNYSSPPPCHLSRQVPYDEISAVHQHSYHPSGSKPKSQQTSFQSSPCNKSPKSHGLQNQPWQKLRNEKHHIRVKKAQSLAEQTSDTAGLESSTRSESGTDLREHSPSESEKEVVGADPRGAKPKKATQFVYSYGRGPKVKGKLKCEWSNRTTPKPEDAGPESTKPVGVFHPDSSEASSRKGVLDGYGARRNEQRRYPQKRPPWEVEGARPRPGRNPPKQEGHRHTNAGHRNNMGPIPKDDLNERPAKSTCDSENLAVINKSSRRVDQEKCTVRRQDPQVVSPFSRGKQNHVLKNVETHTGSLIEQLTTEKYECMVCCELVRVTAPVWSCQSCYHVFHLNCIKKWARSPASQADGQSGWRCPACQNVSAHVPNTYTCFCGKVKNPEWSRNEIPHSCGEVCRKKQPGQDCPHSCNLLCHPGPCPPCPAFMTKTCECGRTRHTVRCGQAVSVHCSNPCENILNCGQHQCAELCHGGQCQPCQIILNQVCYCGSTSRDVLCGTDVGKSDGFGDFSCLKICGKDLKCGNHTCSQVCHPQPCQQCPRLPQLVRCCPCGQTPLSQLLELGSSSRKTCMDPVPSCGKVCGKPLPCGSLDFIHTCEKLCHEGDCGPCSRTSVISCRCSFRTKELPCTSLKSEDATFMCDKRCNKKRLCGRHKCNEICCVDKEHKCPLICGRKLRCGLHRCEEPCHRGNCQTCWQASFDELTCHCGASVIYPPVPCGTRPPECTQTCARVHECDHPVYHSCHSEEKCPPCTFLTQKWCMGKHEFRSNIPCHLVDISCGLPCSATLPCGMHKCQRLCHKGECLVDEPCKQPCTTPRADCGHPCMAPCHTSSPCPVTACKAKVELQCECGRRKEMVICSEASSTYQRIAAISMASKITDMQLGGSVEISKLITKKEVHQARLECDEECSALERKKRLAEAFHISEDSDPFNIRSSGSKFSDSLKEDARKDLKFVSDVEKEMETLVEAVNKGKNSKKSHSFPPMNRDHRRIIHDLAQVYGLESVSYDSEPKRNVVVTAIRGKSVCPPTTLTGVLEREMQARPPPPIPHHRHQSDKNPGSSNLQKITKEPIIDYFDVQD
# Chain of UniProt Q53GA4 (Q53GA4 whole entry): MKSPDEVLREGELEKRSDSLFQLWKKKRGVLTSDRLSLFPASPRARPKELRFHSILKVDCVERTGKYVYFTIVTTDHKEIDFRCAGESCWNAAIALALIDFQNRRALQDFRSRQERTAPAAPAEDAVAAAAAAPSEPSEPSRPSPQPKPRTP
# Chain of UniProt Q16706 (Q16706 whole entry): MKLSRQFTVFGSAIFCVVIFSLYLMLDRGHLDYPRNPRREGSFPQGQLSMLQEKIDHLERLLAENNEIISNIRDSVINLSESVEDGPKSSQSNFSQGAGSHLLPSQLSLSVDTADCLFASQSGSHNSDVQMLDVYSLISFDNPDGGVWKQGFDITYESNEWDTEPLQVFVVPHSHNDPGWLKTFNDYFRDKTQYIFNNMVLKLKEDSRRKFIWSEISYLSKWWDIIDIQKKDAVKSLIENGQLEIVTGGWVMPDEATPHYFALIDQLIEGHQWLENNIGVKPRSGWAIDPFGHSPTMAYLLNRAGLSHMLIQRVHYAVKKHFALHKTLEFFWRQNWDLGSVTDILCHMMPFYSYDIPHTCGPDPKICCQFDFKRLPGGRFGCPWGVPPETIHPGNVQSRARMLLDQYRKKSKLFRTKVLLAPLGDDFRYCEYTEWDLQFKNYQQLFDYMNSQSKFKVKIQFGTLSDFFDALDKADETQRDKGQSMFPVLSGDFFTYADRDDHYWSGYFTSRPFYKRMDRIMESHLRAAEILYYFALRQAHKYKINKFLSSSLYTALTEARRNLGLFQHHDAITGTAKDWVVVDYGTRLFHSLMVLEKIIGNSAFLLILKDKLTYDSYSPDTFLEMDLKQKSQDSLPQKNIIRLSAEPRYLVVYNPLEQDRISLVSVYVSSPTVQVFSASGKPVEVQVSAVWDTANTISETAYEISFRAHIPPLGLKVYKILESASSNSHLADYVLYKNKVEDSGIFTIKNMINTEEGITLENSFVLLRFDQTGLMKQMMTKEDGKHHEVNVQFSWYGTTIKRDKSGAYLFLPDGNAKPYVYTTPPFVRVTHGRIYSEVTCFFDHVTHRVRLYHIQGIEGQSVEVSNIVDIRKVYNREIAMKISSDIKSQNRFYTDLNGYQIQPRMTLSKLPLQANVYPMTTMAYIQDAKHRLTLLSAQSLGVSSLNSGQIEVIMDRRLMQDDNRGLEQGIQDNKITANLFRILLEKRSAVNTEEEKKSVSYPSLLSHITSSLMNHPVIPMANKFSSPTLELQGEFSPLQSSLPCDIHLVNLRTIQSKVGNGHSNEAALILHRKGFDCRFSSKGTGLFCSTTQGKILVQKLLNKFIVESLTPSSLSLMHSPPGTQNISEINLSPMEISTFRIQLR
# Chain of UniProt Q9BU02 (Q9BU02 whole entry): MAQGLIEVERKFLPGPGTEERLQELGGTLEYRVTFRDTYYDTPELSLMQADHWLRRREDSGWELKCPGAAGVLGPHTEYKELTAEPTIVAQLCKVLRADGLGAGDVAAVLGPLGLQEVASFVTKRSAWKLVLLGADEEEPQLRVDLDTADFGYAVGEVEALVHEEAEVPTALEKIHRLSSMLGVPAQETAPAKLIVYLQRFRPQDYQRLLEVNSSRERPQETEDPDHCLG
# Chain of UniProt P32320 (P32320 whole entry): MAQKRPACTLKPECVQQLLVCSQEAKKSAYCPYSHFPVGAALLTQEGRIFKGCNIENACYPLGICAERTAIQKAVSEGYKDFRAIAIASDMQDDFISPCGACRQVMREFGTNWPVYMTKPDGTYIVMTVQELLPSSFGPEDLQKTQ
Target,thermal stability z-score (lipoamide; [1]),thermal stability z-score (lipoamide; arsenate co-treatment: none),thermal stability z-score (potassium arsenate)
AKR1A1 (UniProt P14550),0.441,-0.302,-0.0811
ILF3 (UniProt Q12906),1.39,0.801,-1.11
PI4KA (UniProt P42356),-0.343,-0.333,-0.732
ARFGAP3 (UniProt Q9NP61),0.116,0.294,0.0267
GLB1 (UniProt P16278),-0.564,-0.0527,-0.438
GPAT4 (UniProt Q86UL3),-0.413,0.478,-0.231
DTX2 (UniProt Q86UW9),-0.228,0.0239,-0.381
HDAC3 (UniProt O15379),-0.0189,-0.0121,-0.0998
RECQL (UniProt P46063),1.17,0.899,-1.22
KCTD10 (UniProt Q9H3F6),0.997,0.63,1.06
RANGAP1 (UniProt P46060),0.0948,0.327,1.77
PSMD4 (UniProt P55036),0.377,0.242,0.383
PHLDA2 (UniProt Q53GA4),-0.116,0.13,1.41
PRPF39 (UniProt Q86UA1),-0.0835,-0.137,-0.0696
EEF1G (UniProt P26641),0.0213,0.149,0.215
FZD2 (UniProt Q14332),-1.45,-1.01,0.0158
PAFAH1B3 (UniProt Q15102),0.574,0.345,0.275
RNF219 (UniProt Q5W0B1),-0.038,-0.0978,0.0297
MAP4 (UniProt P27816),0.0996,0.243,-0.384
CDA (UniProt P32320),0.868,1,1.03
AMFR (UniProt Q9UKV5),-0.269,-0.845,0.444
RPL19 (UniProt P84098),0.269,-0.195,-1.08
BAZ1B (UniProt Q9UIG0),-0.152,-0.073,0.21
VWA9 (UniProt Q96SY0),0.159,0.404,-0.114
SGK1 (UniProt O00141),0.0815,-0.0515,0.187
S100A16 (UniProt Q96FQ6),1.33,1.29,0.517
UBE2J1 (UniProt Q9Y385),-0.909,-0.103,0.198
MAN2A1 (UniProt Q16706),-0.502,-0.428,-0.264

Target,thermal stability z-score (lipoamide; [1]),thermal stability z-score (lipoamide; arsenate co-treatment: none),thermal stability z-score (potassium arsenate)
SQLE (UniProt Q14534),0.647,1.27,0.26
FERMT1 (UniProt Q9BQL6),0.0116,0.904,1.07
NUP35 (UniProt Q8NFH5),0.043,-0.376,1.25
DMWD (UniProt Q09019),0.459,-0.167,0.407
NFX1 (UniProt Q12986),-1.53,-1.5,-3.38
PABPC1 (UniProt P11940),0.469,0.549,-0.758
GLCE (UniProt O94923),0.386,0.177,0.231
ALDH1A3 (UniProt P47895),0.622,0.25,-0.284
GMEB1 (UniProt Q9Y692),-0.239,-0.0658,0.19
MIA3 (UniProt Q5JRA6),-3.32,-2.72,1.39
HSPA8 (UniProt P11142),-0.0626,0.357,-0.107
MACF1,-0.0421,-0.0441,-0.308
SKA3 (UniProt Q8IX90),-0.0726,0.132,-0.18
THTPA (UniProt Q9BU02),0.32,-0.0368,0.53
SLK (UniProt Q9H2G2),0.413,0.153,-0.419
OGT (UniProt O15294),-0.039,-0.08,0.254
ITCH (UniProt Q96J02),-0.451,-0.173,-0.386
CHERP (UniProt Q8IWX8),0.00336,0.0908,-0.107
PLRG1 (UniProt O43660),1.67,-0.0202,-0.346
BRD2 (UniProt P25440),-0.0745,0.075,-0.153
DOK1 (UniProt Q99704),0.221,-0.608,-0.45
SFN (UniProt P31947),0.524,0.0759,-0.012
ATG2B (UniProt Q96BY7),-0.149,0.0605,-0.0277
DAAM1 (UniProt Q9Y4D1),-0.0152,-0.226,0.17
GIT2 (UniProt Q14161),1.13,1.87,1
CASP6 (UniProt P55212),1.05,1.33,0.158
KIF14 (UniProt Q15058),0.0801,0.0434,-0.00998
